According to patent US5910498A, “Pyridonecarboxylic acid derivatives or salts thereof and antibacterial agents comprising the same as active ingredient” (Wakunaga Seiyaku Kabushiki Kaisha, priority 1994, dated 1999):
≈ marks a conversion by molar mass, not a printed value.

Legend:
female ICR mouse = test: Phototoxicity test, ear abnormality after UV irradiation; format: in vivo; settings: 40 mg/kg i.v., UV 320-400 nm 4 hours; for Frequency (ear abnormality), 0 hour / Frequency (ear abnormality), 24 hours / Frequency (ear abnormality), 48 hours: affected/total mice; for Rating (ear abnormality), 0 hour / Rating (ear abnormality), 24 hours / Rating (ear abnormality), 48 hours: point 0 no abnormality, 1 light, 2 medium erythema, 3 heavy erythema or edema
Protocol: After a compound to be tested (40 mg/kg/10 ml) was intravenously administered to a female ICR mouse (5-6 weeks old), ultraviolet radiation (320 to 400 nm, 1.8 mW/cm^2 /sec.) was irradiated for 4 hours. […] Ear abnormality was rated point 0 for no abnormality, point 1 for light erythema, point 2 for medium erythema, and point 3 for heavy erythema or edema.

P. aeruginosa IFO3445 = test: Antibacterial action, MIC against P. aeruginosa IFO3445 (standard method of the Japanese Chemotherapy Society); format: cell-based; settings: Pseudomonas aeruginosa, read-out: minimum growth-inhibition concentration (MIC)
Protocol: (§1) A minimum growth-inhibition concentration (MIC: μg/ml) was measured according to the standard method of the Japanese Chemotherapy Society (CHEMOTHERAPY, 29 (1), 76, 1981).

S. aureus 209P = test: Antibacterial action, MIC against S. aureus 209P (standard method of the Japanese Chemotherapy Society); format: cell-based; settings: Staphylococcus aureus, read-out: minimum growth-inhibition concentration (MIC)
Protocol: as §1

CHL cells = test: Chromosomal aberration test, CHL cells; format: cell-based; settings: 0 to 200 μg/ml; metabolic activation method (S9) and direct method 24 and 48 hours
Protocol: CHL cells (0.2 to 2×10^5 cells/well) suspended in an Eagle's MEM medium having 10% bovine fetal serum added thereto were incubated in a 60-mm dish. After the cells were cultured at 37° C. for 4 to 72 hours in the presence of 5% CO2, the medium was replaced by a medium containing an agent in a different concentration and culturing was continued under the same conditions. In the case of a metabolic activation method (S9 added medium), after 6 hours of culturing, the medium was replaced by a medium free of an agent and S9 and culturing was continued for a further 18 hours. In the case of a direct method, the cells were cultured in two ways for 24 hours and 48 hours. At the end of culturing, a chromosome sample was prepared according to the method prescribed by the Japan Surrounding Mutagen society.

For `Nc1cc(-n2cc(C(=O)O)c(=O)c3cc(F)c(N4CC[C@H](N)C4)nc32)c(F)cc1F` [Example 48, 1-(3-amino-4,6-difluorophenyl)-7-[(3S)-3-aminopyrrolidin-1-yl]-6-fluoro-1,4-dihydro-4-oxo-1,8-naphthyridine-3-carboxylic acid], the “Frequency (ear abnormality), 0 hour” value (female ICR mouse) was 0/3, the “Rating (ear abnormality), 0 hour” value (female ICR mouse) was 0 and the “Frequency (ear abnormality), 24 hours” value (female ICR mouse) was 0/3. The “Rating (ear abnormality), 24 hours” value (female ICR mouse) was 0, the “Frequency (ear abnormality), 48 hours” value (female ICR mouse) was 0/3 and the “Rating (ear abnormality), 48 hours” value (female ICR mouse) was 0. The MIC (P. aeruginosa IFO3445) was 0.1 µg/mL (≈ 0.238 µM), the MIC (S. aureus 209P) was 0.025 µg/mL (≈ 0.0596 µM) and the “Chromosomal aberration (rate of structural aberration)” value (CHL cells) was “negative”.
`C[C@@H]1CN(c2nc3c(cc2F)c(=O)c(C(=O)O)cn3-c2cc(N)c(F)cc2F)C[C@H]1N` [Example 56, 1-(3-amino-4,6-difluorophenyl)-7-[(3S,4R)-3-amino-4-methylpyrrolidin-1-yl]-6-fluoro-1,4-dihydro-4-oxo-1,8-naphthyridine-3-carboxylic acid] showed an MIC (P. aeruginosa IFO3445) of 0.1 µg/mL (≈ 0.231 µM) and an MIC (S. aureus 209P) of 0.025 µg/mL (≈ 0.0577 µM).
`Nc1cc(-n2cc(C(=O)O)c(=O)c3cc(F)c(N4CC[C@H](N)C4)cc32)c(F)cc1F` [Example 60, 1-(3-amino-4,6-difluorophenyl)-7-[(3S)-3-aminopyrrolidin-1-yl]-6-fluoro-1,4-dihydro-4-oxoquinoline-3-carboxylic acid] showed an MIC (P. aeruginosa IFO3445) of 0.1 µg/mL (≈ 0.239 µM) and an MIC (S. aureus 209P) of 0.013 µg/mL (≈ 0.0311 µM).
With `Nc1cc(-n2cc(C(=O)O)c(=O)c3cc(F)c(N4CC(N)C4)nc32)c(F)cc1F` [Example 117, 7-(3-aminoazetidin-1-yl)-1-(3-amino-4,6-difluorophenyl)-6-fluoro-1,4-dihydro-4-oxo-1,8-naphthyridine-3-carboxylic acid] the “Frequency (ear abnormality), 0 hour” value (female ICR mouse) was 0/3, the “Rating (ear abnormality), 0 hour” value (female ICR mouse) was 0 and the “Frequency (ear abnormality), 24 hours” value (female ICR mouse) was 0/3. For the same molecule, the “Rating (ear abnormality), 24 hours” value (female ICR mouse) was 0, the “Frequency (ear abnormality), 48 hours” value (female ICR mouse) was 0/3 and the “Rating (ear abnormality), 48 hours” value (female ICR mouse) was 0. The MIC (P. aeruginosa IFO3445) was 0.1 µg/mL (≈ 0.247 µM), the MIC (S. aureus 209P) was 0.05 µg/mL (≈ 0.123 µM) and the “Chromosomal aberration (rate of structural aberration)” value (CHL cells) was “negative”.
`Nc1cc(-n2cc(C(=O)O)c(=O)c3cc(F)c(N4CC(N)C4)c(F)c32)c(F)cc1F` [Example 150, 7-(3-aminoazetidin-1-yl)-1-(3-amino-4,6-difluorophenyl)-6,8-difluoro-1,4-dihydro-4-oxoquinoline-3-carboxylic acid] was tested, and the “Frequency (ear abnormality), 0 hour” value (female ICR mouse) was 0/3, the “Rating (ear abnormality), 0 hour” value (female ICR mouse) was 0 and the “Frequency (ear abnormality), 24 hours” value (female ICR mouse) was 0/3. For the same molecule, the “Rating (ear abnormality), 24 hours” value (female ICR mouse) was 0, the “Frequency (ear abnormality), 48 hours” value (female ICR mouse) was 0/3 and the “Rating (ear abnormality), 48 hours” value (female ICR mouse) was 0. It also gave an MIC (P. aeruginosa IFO3445) of 0.2 µg/mL (≈ 0.474 µM) and an MIC (S. aureus 209P) of 0.025 µg/mL (≈ 0.0592 µM).
For `Nc1cc(-n2cc(C(=O)O)c(=O)c3cc(F)c(N4CC(N)C4)c(Cl)c32)c(F)cc1F` [Example 152, 7-(3-aminoazetidin-1-yl)-1-(3-amino-4,6-difluorophenyl)-8-chloro-6-fluoro-1,4-dihydro-4-oxoquinoline-3-carboxylic acid], the “Frequency (ear abnormality), 0 hour” value (female ICR mouse) was 0/3, the “Rating (ear abnormality), 0 hour” value (female ICR mouse) was 0 and the “Frequency (ear abnormality), 24 hours” value (female ICR mouse) was 0/3. The “Rating (ear abnormality), 24 hours” value (female ICR mouse) was 0, the “Frequency (ear abnormality), 48 hours” value (female ICR mouse) was 0/3 and the “Rating (ear abnormality), 48 hours” value (female ICR mouse) was 0. For the same molecule, the MIC (P. aeruginosa IFO3445) was 0.05 µg/mL (≈ 0.114 µM) and the MIC (S. aureus 209P) was under 0.013 µg/mL.
Molecule `CC1(N)CN(c2c(F)cc3c(=O)c(C(=O)O)cn(-c4cc(N)c(F)cc4F)c3c2Cl)C1` [Example 156, 1-(3-amino-4,6-difluorophenyl)-7-(3-amino-3-methylazetidin-1-yl)-8-chloro-6-fluoro-1,4-dihydro-4-oxoquinoline-3-carboxylic acid] has an MIC (P. aeruginosa IFO3445) of 0.1 µg/mL (≈ 0.221 µM) and an MIC (S. aureus 209P) of under 0.013 µg/mL.
`CNC1CN(c2c(F)cc3c(=O)c(C(=O)O)cn(-c4cc(N)c(F)cc4F)c3c2Cl)C1` [Example 157, 1-(3-amino-4,6-difluorophenyl)-8-chloro-6-fluoro-7-(3-methylaminoazetidin-1-yl)-1,4-dihydro-4-oxoquinoline-3-carboxylic acid] gave an MIC (P. aeruginosa IFO3445) of 0.1 µg/mL (≈ 0.221 µM) and an MIC (S. aureus 209P) of under 0.013 µg/mL.
In the case of `Nc1cc(-n2cc(C(=O)O)c(=O)c3c(O)c(F)c(N4CC[C@H](N)C4)cc32)c(F)cc1F` [Example 160, 1-(3-amino-4,6-difluorophenyl)-7-[(3S)-3-aminopyrrolidin-1-yl]-6-fluoro-5-hydroxy-1,4-dihydro-4-oxoquinoline-3-carboxylic acid], the “Frequency (ear abnormality), 0 hour” value (female ICR mouse) is reported as 0/3, the “Rating (ear abnormality), 0 hour” value (female ICR mouse) is reported as 0 and the “Frequency (ear abnormality), 24 hours” value (female ICR mouse) is reported as 0/3. The “Rating (ear abnormality), 24 hours” value (female ICR mouse) was 0, the “Frequency (ear abnormality), 48 hours” value (female ICR mouse) was 0/3 and the “Rating (ear abnormality), 48 hours” value (female ICR mouse) was 0. For the same molecule, the MIC (P. aeruginosa IFO3445) was 0.2 µg/mL (≈ 0.46 µM) and the MIC (S. aureus 209P) was 0.025 µg/mL (≈ 0.0576 µM).
For `Cc1c(F)c(N2CC[C@H](N)C2)cc2c1c(=O)c(C(=O)O)cn2-c1cc(N)c(F)cc1F` [Example 162, 1-(3-amino-4,6-difluorophenyl)-7-[(3S)-3-aminopyrrolidin-1-yl]-6-fluoro-5-methyl-1,4-dihydro-4-oxoquinoline-3-carboxylic acid], the MIC (P. aeruginosa IFO3445) was 0.2 µg/mL (≈ 0.463 µM) and the MIC (S. aureus 209P) was 0.013 µg/mL (≈ 0.0301 µM).
With `NC1CCN(c2nc3c(cc2F)c(=O)c(C(=O)O)cn3-c2ccc(F)cc2F)C1` (stereo not drawn) [tosufloxacin, reference compound] the “Frequency (ear abnormality), 0 hour” value (female ICR mouse) was 4/5, the “Rating (ear abnormality), 0 hour” value (female ICR mouse) was 1.8 and the “Frequency (ear abnormality), 24 hours” value (female ICR mouse) was 4/5. For the same molecule, the “Rating (ear abnormality), 24 hours” value (female ICR mouse) was 0.8, the “Frequency (ear abnormality), 48 hours” value (female ICR mouse) was 1/5 and the “Rating (ear abnormality), 48 hours” value (female ICR mouse) was 0.2. It also gave an MIC (P. aeruginosa IFO3445) of 0.39 µg/mL (≈ 0.965 µM) and an MIC (S. aureus 209P) of 0.05 µg/mL (≈ 0.124 µM).
